The values that follow come from patent US20230235374A1, “High Throughput Assays for Detecting Translation Readthrough Inducers” (The Trustees of the University of Pennsylvania, priority 2021, published 2023).

For experiment [1], the system named is Stop-POST5 complex (RFC-dependent termination). The experiment can be described thus: smTIRF assay of RFC-dependent peptide and tRNA release. Type of experiment: biochemical, shrimp (Artemia salina). As to the method:
Immobilization of ribosome Stop-POST 5 complexes. PEGylated flow chambers were incubated in 0.5 mg/ml streptavidin for 5 mins and washed with Buffer 4. Biotinylated Stop-POST5 containing FK(atto647)VRQ-tRNA^Gln (Cy3) in the P-site, was formed at room temperature by incubating Stop-POST4, eEF1A, GTP, and Gln-(Cy3)tRNA^Gln for 5 mins and then injected into the streptavidin-coated slide chamber. After a 5 min incubation, excess unbound ribosome was flowed out. Then eRF1/eRF3±TRIDs was injected dynamically at 3 sec while recording. The injection dead time was subtracted for each particle.
Single-molecule fluorescence imaging. All sm-TIRF studies were carried out at 24° C. All dilutions, complex formation, and single-molecule imaging were carried out in Buffer 4 with an added enzymatic oxygen scavenging system of 2 mM protocatechuic acid (PCA), 50 nM protocatechunate 3,4 dioxygenase (PCD, Sigma Aldrich), 1 mM cyclooctatetraene (COT, Sigma Aldrich), 1 mM 4-nitrobenzyl alcohol (NBA, Sigma Aldrich), and 1.5 mM 6-hydroxy-2,5,7,8-tetramethyl-chromane-2-carboxylic acid (Trolox, Sigma-Aldrich) (Flis et al., Cell reports, 25(10), 2676-2688 (2018).
Image stacks were recorded at 100 ms frame rate on a custom-built objective-type total internal reflection fluorescence (TIRF) microscope based on a commercial inverted microscope (Eclipse Ti-E, Nikon) and capable of performing alternating-laser excitation (ALEX) between 532 nm and 640 nm laser beams using an acousto-optic tunable filter (AOTF, Chen et al., 2011). For the time-lapse experiment, timing of the movies, programmed into NIS-Elements (Nikon) microscope software, were recorded by illuminating the sample for 50-20 frames at 10 frames per s with 15 s or […] intervening dark intervals. Video recording was started and then eRF1/eRF3±TRIDs was injected from a triggered syringe pump at 3 sec while recording. The injection dead time was subtracted for each particle. Triggering of the shutters, AOTF, and pump was synchronized using LabView scripts driven from the camera exposure signal.
Data analysis. Collected movies were analyzed by a custom-made software program developed as an ImageJ plugin (Chen et al., Mol. Cell, 42, 367-377 (2011)), and further analyzed using Python. Distributions of peptide and tRNA dissociation times were fit to eq (5), using maximum likelihood estimation (Bevington and Robinson. Data Reduction and Error Analysis for the Physical Sciences. New York: McGraw-Hill, (2002); Woody et al., Biophys. J. 111, 273-282 (2016)), where P is the probability density.
smTIRF results using Atto(pep)-Cy-Stop-POST5 attached to surface-immobilized ribosomes. Although the distance between the two fluorophores is not close enough to produce FRET, fluorescent pairs could be identified by co-localization on the slide under alternating 532 nm and 640 nm total internal reflection fluorescence (TIRF) illumination. This permits near-simultaneous monitoring of the dynamics of peptide and P-site tRNA release from the Stop-POST5 complex following RFC binding.
To reduce photobleaching of each fluorophore, time-lapse movies were recorded with bursts of 20 or 50 frames at 100 ms frame intervals interleaved by 20 s intervals with the lasers shuttered. Total recording time for each trial was 20 min.
FIG. 8A and FIG. 8C show typical frame by frame recordings indicating a loss of signal for both labeled peptide and labeled tRNA after the addition of the RFC to Atto(pep)-Cy(tRNA)-Stop-POST5. Either peptide (a) or tRNA (b) can dissociate first, in approximately equal proportions. Photobleaching of Cy3-labeled tRNA and Atto647-labeled peptide in the absence of eRF1/eRF3 was much slower (FIG. 8E and FIG. 8F). Under the time lapse illumination employed, mean lifetimes for Atto647-peptide and Cy3-tRNA at 0.32 μM eRF1 and 2 μM eRF3 were each 2.45 min. […]

The subject of experiment [2] is premature stop codon in Stop-POST5 complex. The experiment can be described thus: PURE-LITE readthrough assay. The class given is biochemical, shrimp (Artemia salina). As to conditions: FIG. 2A, read-out: apparent EC50, readthrough efficacy. On the procedure: FIG. 2A, FIG. 2B, FIG. 2C, FIG. 2D, FIG. 2E, and FIG. 2F are graphs showing AzAt Photoaffinity Labeling and binding. FIG. 2A is a graph showing the readthrough efficacy of AzAt measured by PURE-Lite readthrough assay. AzAt is shown to display similar sigmoidal response as ataluren and ataluren-like compounds (Ng et al., 2018), with the apparent EC50 of 50±10 μM. FIG. 2B illustrates AzAt photoincorporation into Stop-POST5 and the RNA fraction of Stop-POST5. FIG. 2C illustrates AzAt photoincorporation into 80S-IRES and the total RNA isolated from 80S.IRES. All of the labeling stoichiometries in FIG. […] are normalized to the saturation labeling of Stop-POST5, which was equal to 1.2/Stop-POST5. FIG. 2D illustrates AzAt photoincorporation into eRF1 both alone and complexed with eRF3.GDPNP. The values are normalized to the saturation labeling of isolated eRF1. FIG. 2E illustrates inhibition of AzAt photoincorporation by the addition of either ataluren or GJ072. FIG. 2F is a graph showing Photoaffinity labeling of eRF3 alone or within release factor ternary complex. […] FIG. 2G and FIG. 2H are graphs showing the RNA-seq reads coverage as the effective reads per nucleotide. PRE: treated with 300 μM prephotolysed AzAt; PAL: treated with 300 μM AzAt. 26S-rRNA nucleotides 1-45 were unable to be mapped due to the lack of sequence information. […]

Where [3] appears, read: 0.081 μM RFC, 1000 μM ataluren added 4-25 s later, 24° C.

In the case of `O=C(O)c1cccc(-c2noc(-c3ccccc3F)n2)c1` [Ataluren], the “mode of inhibition of RFC” value in experiment [1] is recorded as “apparent competitive inhibitor”. For the same compound, in experiment [1] (0.032 μM RFC and 1 mM ataluren, FIG. 10C), the “effect on CC value of peptide and tRNA lifetimes” value is “did not change the CC value”. For the same compound, in experiment [1] (setting [3]), the “rate constant for elimination of ataluren's inhibitory effect after RFC addition, peptide” value came to 9.6 ± 2.6 min⁻¹ and the “rate constant for elimination of ataluren's inhibitory effect after RFC addition, tRNA” value stood at 10.8 ± 3.6 min⁻¹. Further, in experiment [1] (200, 500, 1000 μM ataluren), the “effect on Vmax values at high RFC concentration” value was “little affected”. In addition, the “KA, inhibition of pentapeptide release rate constants” value in experiment [1] (measured by both smTIRF and fluorescence anisotropy, eRF1 32 nM, FIG. 9H) was 250 ± 20 µM. The “KA, inhibition of tRNA release” value in experiment [1] (smTIRF) was 180 ± 10 µM. Further, the “effects on the rates of peptide and tRNA release” value in experiment [1] (steps after tRNA-peptide bond cleavage) was “no direct effects”.
In the case of `[N-]=[N+]=Nc1ccc(-c2nc(-c3cccc(C(=O)O)c3)no2)cc1` [AzAt], the 50% effective concentration (EC50) in experiment [2] amounted to 50 ± 10 µM.

A word on the EC50: it is the midpoint of the concentration-response curve.
